Assay results reported in US7842479B2 (priority 2004, dated 2010).
Entries after “also recorded” stand apart in the source; their conditions may differ. Where a name gives a salt, the structure may show the parent alone. Read-outs that look alike come from different tables or passages of the source.

Legend:
[1] = system: cidABC and lrgAB transcription; type: cell-based, S. aureus
[2] = system: cidC-encoded pyruvate oxidase; type: biochemical, S. aureus
S. aureus UAMS-1 = type: cell-based
[3] = system: S. aureus KB1050 (cidA mutant); type: cell-based
SH1000 strain [4] = type: cell-based
8325-4 strain [5] = type: cell-based
SH1000 strain [6] = type: cell-based; remark: listed apart in the source
8325-4 strain [7] = system: 8325-4 strain

Cl [HCl]
cidABC and lrgAB expression ([1]; pH 5): elevated the expression of cidABC relative to growth in neutral media

CC(=O)[O-].[Na+] [Na-acetate, sodium acetate]
cidABC and lrgAB expression ([1]; pH 4.5): dramatically increased
cidABC and lrgAB expression ([1]; pH 6.5): undetectable

[Cl-].[Na+] [NaCl, sodium chloride]
cidABC and lrgAB expression ([1]; pH 4.5): not detected at any of the pH values tested

CC(=O)O [acetic acid]
cidABC expression [1]: dramatically increased expression of cidABC
cidABC and lrgAB expression ([1]; pH 5): pronounced positive effect on both cidABC and lrgAB expression
alsSD expression (alsSD transcription): dramatically increased expression of alsSD at all time points tested

OCC(O)CO [glycerol]
pyruvate oxidase activity with carbon source added instead of sodium pyruvate [2]: the only one that possessed activity was the phosphoenol pyruvate

C=C(OP(=O)(O)O)C(=O)O [phosphoenol pyruvate]
pyruvate oxidase activity with carbon source added instead of sodium pyruvate [2]: approximately half of what was seen with sodium pyruvate

CC(=O)[O-].[K+] [potassium acetate]
pyruvate oxidase activity with carbon source added instead of sodium pyruvate [2]: the only one that possessed activity was the phosphoenol pyruvate

CO[C@H]1/C=C/O[C@@]2(C)Oc3c(C)c(O)c4c(O)c(c(/C=N/N5CCN(C)CC5)c(O)c4c3C2=O)NC(=O)/C(C)=C\C=C\[C@H](C)[C@H](O)[C@@H](C)[C@@H](O)[C@@H](C)[C@H](OC(C)=O)[C@@H]1C [rifampin]
decrease in viable cell counts (S. aureus UAMS-1): three log decrease in viable cell counts; also recorded: just over one log decrease
rifampin sensitivity relative to UAMS-1 [3]: decreased rifampin sensitivity relative to UAMS-1
viable cell counts compared to UAMS-1 after incubation with rifampin [3]: greater than one log unit higher viable cell counts
loss of viable cell counts (SH1000 strain [4]): lose two log units of viable cell counts
loss of viable cell counts (8325-4 strain [5]): lose two log units of viable cell counts
loss of viability (SH1000 strain [6]): two log loss of viability
difference in viable cell counts determined using the two methods (8325-4 strain [7]): greater than 1,000 fold
viability (8325-4 strain [7]; Staphylococcus aureus): ~100%

CC(O)C(=O)[O-].[Na+] (stereo not shown) [sodium lactate]
pyruvate oxidase activity with carbon source added instead of sodium pyruvate [2]: the only one that possessed activity was the phosphoenol pyruvate
